Measured values taken from patent publication US4895856A, “Derivatives of 5-pentylamino-5-oxopentanoic and 4-pentylamino-4-oxobutanoic acids with antagonistic activity towards cholecystokinin” (Rotta Research Laboratorium S.p.A., priority 1986, dated 1990).
Where two headings read alike, the source gives them in different places.

How the values were obtained:
[1] = biological target: T1, cholecystokinin receptors of ox gallbladder membranes (Bos taurus, UniProt A6QLH2); test: Inhibition of binding of (125-I)-Bolton Hunter-CCK-8 to ox gallbladder membranes; conditions: 2 h at 25° C., pH 7.4, read-out: IC50 (displacement of 50% of the (125-I)-CCK-8 from the receptors)
T1 sequence (A6QLH2 1-427): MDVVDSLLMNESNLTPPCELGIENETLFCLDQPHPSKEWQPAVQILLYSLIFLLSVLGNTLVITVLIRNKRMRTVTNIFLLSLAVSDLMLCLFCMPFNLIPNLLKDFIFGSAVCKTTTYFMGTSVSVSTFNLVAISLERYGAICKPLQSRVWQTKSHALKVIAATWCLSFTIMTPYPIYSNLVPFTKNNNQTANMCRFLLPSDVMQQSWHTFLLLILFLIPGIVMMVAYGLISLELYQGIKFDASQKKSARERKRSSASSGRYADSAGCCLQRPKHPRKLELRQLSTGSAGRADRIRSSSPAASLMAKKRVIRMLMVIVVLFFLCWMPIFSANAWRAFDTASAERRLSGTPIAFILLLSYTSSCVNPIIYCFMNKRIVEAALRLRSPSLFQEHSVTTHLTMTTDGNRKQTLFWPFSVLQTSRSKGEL
Protocol: The capacity of some compounds of the invention to inhibit the binding of (125-I)-Bolton Hunter-CCK-8 to the cholecystokinin receptors of ox gallbladder membranes was evaluated by comparison with the displacement induced by cold (unmarked) CCK.
The ox gallbladder cell membranes were prepared by homogenisation with Tris buffer (pH 7.4) and centrifuging of the homogenate at 50,000 gravity for 10 minutes. The membranes were then incubated together with the radioactive tracer and the compounds under study for 2 h at 25° C.
After the supernatant liquid had been discarded, the radioactivity associated with the pellet was determined with a liquid scintillator. The specific binding was determined as the difference between the binding in the absence and in the presence of 10^-6 M CCK-8.

[2] = system: gallbladder; test: Antispastic activity on the gallbladder in mice (egg yolk-induced emptying); format: in vivo; conditions: for % inhibition of the emptying of the gallbladder: egg yolk; for ED50: Mus musculus, ip, read-out: ID50 (antispastic activity on contraction of the gallbladder induced by egg yolk)
Protocol: (§1) Emptying of the gall bladder was induced by a single oral administration of 1 ml of a 30% suspension (weight/volume) of lyophylised egg yolk in a physiological solution.
(§2) As stated above once it has been absorbed egg yoke induces a release of endogenous CCK.
(§3) The antagonistic compounds were administered intraperitoneally (i.p.) 15 minutes before the contractant.
(§4) The % antispastic activity for each dose was calculated from the following formula: [formula] where P1 =the average weight of the gallbladders of the group of animals treated with the drug plus the contractant.
(§5) P2 =the average weight of the gallbladders of the group of animals treated with the contractant only.
(§6) P3 --the average weight of the gallbladders of the control group of animals.
(§7) The results obtained are given in Table 5 where the effects obtained are expressed as the ID50.

[3] = as above; format: in vivo; conditions: mouse, in vivo, ip, 75 mg/kg, read-out: death of the animals treated
Protocol: as §1, §2, §3, §4, §5, §6, §7

[4] = system: pancreas; test: Protective activity in experimental pancreatitis induced by sodium taurocholate in rats; format: in vivo; conditions: for ED50: Rattus norvegicus, ip, taurocholate pancreatitis
Protocol: The method described by Aho et al. (Scandinavian J. Gastroenterology 15 (1980), 411-16) was followed.
Male rats weighing approximately 250 g were subjected to laparotomy and the pancreas exposed. 0.3 ml of a 6% solution of sodium taurocholate were injected directly into the pancreatic tissue.
The products under examination were administered intraperitoneally (i.p.) 30 minutes before the operation and 3 hours after the operation.
6 hours after the laparotomy, blood was taken from the retro-orbital plexus after anaesthesia with ether, the animals were killed and the pancreas was removed and weighed. The activity of the serum amylase was determined by the Ceska method (Clin. Chim. Acta 26 (1969), 437-444).
The compounds were tested at various doses so as to enable the calculation of an ID50 value, that is the dose (in mg/kg i.p.) which is able to inhibit the toxic effect of the sodium taurocholate by 50%, expressed both as a % inhibition of the increase in weight of the pancreas and as a % inhibition of the increase in serum amylase.

[5] = system: pyloric sphincter; test: Antispastic activity on pyloric contraction induced by CCK in rats; format: in vivo; conditions: for % inhibition of the pyloric contraction: CCK 8 mcg/kg i.p.; for ED50: Rattus norvegicus, ip, i.p. 15 minutes before CCK 8 mcg/kg i.p., read-out: ID50 (antispastic activity on the pyloric contraction induced by CCK)
Protocol: A dose of 8 mcg/kg i.p. of CCK was used, which induced a sub-maximal contraction of the pylorus. The antagonistic compounds were administered (i.p.) 15 minutes before the contractant. 10 minutes after administration of the contractant, the animals were treated per os with 25 ml/kg of H2 O. 5 minutes after the administration the animals were killed, their stomachs removed and the gastric content measured by removal with a syringe.
The % antispastic activity for each dose administered was calculated from the following formula: [formula] where V1 =the volume of gastric content of the group of animals treated with the drug plus the contractant.
V2 =the volume of gastric content of the group of animals treated with the contractant only.
V3 =the volume of gastric content of the control group of animals.
Various doses of the compounds were tested so as to enable the calculation of an ID50 value, that is the dose (in mg/kg i.p.) which is able to inhibit the contractant effect of CCK by 50%.
The results obtained are given in Table 6 where the effects obtained are expressed as the ID50.

[6] = i.p. 15 minutes before the contractant
[7] = read-out: ID50, inhibition of pancreas weight increase
[8] = read-out: ID50, inhibition of serum amylase increase

Compound | % inhibition amylase increase ([4]; 3 mg/kg i.p. + taurocholate) | % inhibition weight increase (pancreas) ([4]; 3 mg/kg i.p. + taurocholate) | % ratio pancreas weight / animal weight ([4]; 3 mg/kg i.p. + taurocholate) | amylase in the serum ([4]; 3 mg/kg i.p. + taurocholate) | % inhibition amylase increase ([4]; 10 mg/kg i.p. + taurocholate) | % inhibition weight increase (pancreas) ([4]; 10 mg/kg i.p. + taurocholate) | % ratio pancreas weight / animal weight ([4]; 10 mg/kg i.p. + taurocholate) | amylase in the serum ([4]; 10 mg/kg i.p. + taurocholate) | ED50 [4, 7] | ED50 [4, 8] | % inhibition of the emptying of the gallbladder ([2]; 0.1 mg/kg i.p.) | % inhibition of the emptying of the gallbladder ([2]; 0.3 mg/kg i.p.) | ED50 [2, 6] | % inhibition of the pyloric contraction ([5]; 0.03 mg/kg i.p.) | % inhibition of the pyloric contraction ([5]; 0.1 mg/kg i.p.) | % inhibition of the pyloric contraction ([5]; 0.3 mg/kg i.p.) | ED50 [5] | % inhibition of the emptying of the gallbladder ([2]; 1.0 mg/kg i.p.) | % inhibition of the pyloric contraction ([5]; 1.0 mg/kg i.p.) | also measured
CCK-8: cold (unmarked) CCK; cholecystokinin |  |  |  |  |  |  |  |  |  |  |  |  |  |  |  |  |  |  |  | IC50 [1]: 0.2 nM
COc1ccc(Cc2nccc3cc(OC)c(OC)cc23)cc1OC [PAPAVERINE, papaverine, reference compound] |  |  |  |  |  |  |  |  |  |  |  |  |  |  |  |  |  |  |  | % inhibition of the emptying of the gallbladder ([2]; 25 mg/kg i.p.): 0%; % inhibition of the emptying of the gallbladder ([2]; 50 mg/kg i.p.): 0%; % inhibition of the emptying of the gallbladder ([2]; 75 mg/kg i.p.): 26.1%; ID50 (antispastic activity on contraction of the gallbladder induced by egg yolk) [2, 6]: INACTIVE; antispastic activity on the gallbladder (in words) ([2]; only at the toxic dose of 75 mg/kg): slightly active; mortality [3]: 20%
CCCCCN(CCCCC)C(=O)C(CCC(=O)O)NC(=O)c1ccc2ccccc2c1 (racemic) [Compound 19, D,L-4-(2-naphthoylamino)-5-(di-n-pentylamino)-5-oxopentanoicacid] | 76.7% | 73.3% | 0.43% | 10.0 U/ml | 90.7% | 93.3% | 0.40% | 8.8 U/ml | 1.7 mg/kg | 1.1 mg/kg | 41.2% | 83.7% | 0.11 mg/kg | 28.7% | 70.7% | 95.5% | 0.05 mg/kg |  |  | % inhibition amylase increase ([4]; 1 mg/kg i.p. + taurocholate): 45.3%; % inhibition weight increase (pancreas) ([4]; 1 mg/kg i.p. + taurocholate): 33.3%; % ratio pancreas weight / animal weight ([4]; 1 mg/kg i.p. + taurocholate): 0.49%; amylase in the serum ([4]; 1 mg/kg i.p. + taurocholate): 12.7 U/ml; ED50 ([4]; read-out: dose inhibiting the weight increase of the pancreas and the serum amylase increase by 50%): ~1.5 mg/kg; % inhibition of the emptying of the gallbladder ([2]; 0.03 mg/kg i.p.): 12.1%; contraction of the gallbladder induced by the egg yolk (in words) ([2]; 0.3 mg/kg): almost completely blocks the contraction; % inhibition of the pyloric contraction ([5]; 0.01 mg/kg i.p.): 17.3%
CCCCCN(CCCCC)C(=O)C(CC(=O)O)NC(=O)c1ccc2ccccc2c1 (stereo not shown) [Compound 26] |  |  |  |  |  |  |  |  |  |  | 17.0% | 30.8% | 0.53 mg/kg | 24.8% | 50.0% | 57.7% | 0.14 mg/kg | 66.7% | 78.9% | 
CCCCCN(CCCOC)C(=O)C(CCC(=O)O)NC(=O)c1ccc2ccccc2c1 (stereo not shown) [Compound 28] | 45.0% | 29.2% | 0.52% | 11.0 U/ml | 68.3% | 50.0% | 0.47% | 9.6 U/ml | 9.2 mg/kg | 4.1 mg/kg | 16.5% | 36.2% | 0.62 mg/kg | 12.5% | 29.2% | 46.7% | 0.3 mg/kg | 58.8% | 73.0% | % inhibition amylase increase ([4]; 20 mg/kg i.p. + taurocholate): 88.3%; % inhibition weight increase (pancreas) ([4]; 20 mg/kg i.p. + taurocholate): 66.6%; % ratio pancreas weight / animal weight ([4]; 20 mg/kg i.p. + taurocholate): 0.43%; amylase in the serum ([4]; 20 mg/kg i.p. + taurocholate): 8.4 U/ml
